The molecules below were run on HEY (assay: MTT cytotoxicity assay (Example 1)). Conditions: Homo sapiens, 72 h.
Assay type: cell-based, human
Source text: (§1) Human breast cancer cells MDA-MB-435 were purchased from the American Type Culture Collection (Manassas, Va.). The HCT116 p53+/+ and HCT116 p53−/− cells were kindly provided by Dr. Bert Vogelstein (Johns Hopkins Medical Institutions, Baltimore, Md.). The human ovarian carcinoma cell line (HEY) which is naturally resistant to cisplatin, was kindly provided by Dr. Louis Dubeau, University of Southern California (USC) Norris Cancer Center, and NIH3T3 normal mouse fibroblast cells were kindly provided by Dr. Michael Press from USC. HEY and NIH3T3 cells were maintained as monolayer cultures in RPMI, HCT 116 cells in McCoy1s5A media and MDA-MB 435 in DMEM. Media were purchased from (Mediatech, Virginia) and supplemented with 10% fetal bovine serum (Gemini-Bioproducts, Woodland, Calif.), 2 mM L-glutamine and 5% Penicillin/streptomycin from Bio whittaker were purchased from VWR. Cells were incubated at 37° C. in a humidified atmosphere of 5% CO2. To remove the adherent cells from the flask for passaging and counting, cells were washed with PBS without calcium or magnesium, incubated with a small volume of 0.25% trypsin-EDTA solution (Sigma-Aldrich, St. Louis, Mo.) for 5-10 min, and washed with culture medium and centrifuged. All experiments were performed using cells at exponential growth stage. Cells were routinely checked for mycoplasma contamination using a PCR-based assay (Stratagene, Tex., USA).
(§2) Stock solutions (10 mM) of all compounds were prepared in DMSO and stored at −20° C. Further dilutions were made fresh in PBS or cell-culture media right before cell treatment.
(§3) Cytotoxicity was assessed by a 3-(4,s-dimethylthiazol-2-yl)-2,5-diphenyltetrazolium bromide (MTT) assay as previously described.^24 Briefly, cells were seeded in 96-well microtiter plates and allowed to attach overnight. Cells were subsequently treated with continuous exposure to the corresponding drug for 72 h. A MTT solution (at a final concentration of 0.5 mglml) was added to each well, and cells were incubated for 4 h at 37° C. After removal of the medium, DMSO was added and the absorbance was read at 570 nm. All assays were done in triplicate. The IC50 was then determined for each drug from a plot of log (drug concentration) versus percentage of cells killed.
`O=C(O)c1cc(-c2ccc(C=NNc3nc4nonc4nc3Nc3ccc(F)cc3)o2)ccc1Cl` [Compound 13] gave an IC50 greater than 10 µM. `O=C(O)c1cc(-c2ccc(/C=N/Nc3nc4nonc4nc3Nc3ccccc3F)o2)ccc1Cl` [Compound 14] showed an IC50 of 10 µM. With `Cc1cc(-c2ccc(/C=N/Nc3nc4nonc4nc3Nc3ccccc3F)o2)c(C)c([N+](=O)[O-])c1` [Compound 16] the IC50 was 0.8 µM. `O=C(O)c1cc(-c2ccc(C=NNc3nc4nonc4nc3Nc3cccc(Br)c3)o2)ccc1O` [Compound 18] was tested, and the IC50 was greater than 10 µM. `Cc1cccc(Nc2nc3nonc3nc2NN=Cc2ccc(-c3cccc(C(=O)O)c3)o2)c1` [Compound 20] showed an IC50 of 8 µM. `c1coc(CNc2nc3nonc3nc2NCc2ccco2)c1` [Compound 21] was tested, and the IC50 was greater than 20 µM. `O=C(O)c1ccccc1Nc1nc2nonc2nc1Nc1ccccc1C(=O)O` [Compound 22] gave an IC50 greater than 10 µM. In the case of `c1cc(N2CCOCC2)ccc1Nc1nc2nonc2nc1Nc1ccc(N2CCOCC2)cc1` [Compound 23], the IC50 is reported as greater than 10 µM.

These molecules were tested on MDA-MB-435 (assay: MTT cytotoxicity assay (Example 1)). Conditions: Homo sapiens, MDA-MB-435, 72 h.
Assay type: cell-based, human
Source text: as §1, §2, §3
Work on `O=C(O)c1cc(-c2ccc(C=NNc3nc4nonc4nc3Nc3ccc(F)cc3)o2)ccc1Cl` [Compound 13] yielded an IC50 greater than 10 µM. With `O=C(O)c1cc(-c2ccc(/C=N/Nc3nc4nonc4nc3Nc3ccccc3F)o2)ccc1Cl` [Compound 14] the IC50 was greater than 10 µM. `Cc1cc(-c2ccc(/C=N/Nc3nc4nonc4nc3Nc3ccccc3F)o2)c(C)c([N+](=O)[O-])c1` [Compound 16] was tested, and the IC50 was 4 µM. In the case of `O=C(O)c1cc(-c2ccc(C=NNc3nc4nonc4nc3Nc3cccc(Br)c3)o2)ccc1O` [Compound 18], the IC50 is reported as greater than 10 µM. Work on `Cc1cccc(Nc2nc3nonc3nc2NN=Cc2ccc(-c3cccc(C(=O)O)c3)o2)c1` [Compound 20] yielded an IC50 greater than 10 µM. In the case of `c1coc(CNc2nc3nonc3nc2NCc2ccco2)c1` [Compound 21], the IC50 is reported as greater than 20 µM. In the case of `O=C(O)c1ccccc1Nc1nc2nonc2nc1Nc1ccccc1C(=O)O` [Compound 22], the IC50 is reported as greater than 10 µM. Work on `c1cc(N2CCOCC2)ccc1Nc1nc2nonc2nc1Nc1ccc(N2CCOCC2)cc1` [Compound 23] yielded an IC50 greater than 10 µM.

Each molecule was assayed on HCT116 p53+/+ (assay: MTT cytotoxicity assay (Example 1)). Conditions: Homo sapiens, HCT-116, 72 h, MTT, 72 h.
Assay type: cell-based
Source text: as §1, §2, §3
For `O=C(O)c1cc(-c2ccc(C=NNc3nc4nonc4nc3Nc3ccc(F)cc3)o2)ccc1Cl` [Compound 13], the IC50 was greater than 10 µM. Molecule `O=C(O)c1cc(-c2ccc(/C=N/Nc3nc4nonc4nc3Nc3ccccc3F)o2)ccc1Cl` [Compound 14] has an IC50 greater than 10 µM. Molecule `Cc1cc(-c2ccc(/C=N/Nc3nc4nonc4nc3Nc3ccccc3F)o2)c(C)c([N+](=O)[O-])c1` [Compound 16] has an IC50 of 1.5 µM. With `O=C(O)c1cc(-c2ccc(C=NNc3nc4nonc4nc3Nc3cccc(Br)c3)o2)ccc1O` [Compound 18] the IC50 was greater than 10 µM. For `Cc1cccc(Nc2nc3nonc3nc2NN=Cc2ccc(-c3cccc(C(=O)O)c3)o2)c1` [Compound 20], the IC50 was greater than 10 µM. `c1coc(CNc2nc3nonc3nc2NCc2ccco2)c1` [Compound 21] showed an IC50 greater than 20 µM. Molecule `O=C(O)c1ccccc1Nc1nc2nonc2nc1Nc1ccccc1C(=O)O` [Compound 22] has an IC50 greater than 10 µM. With `c1cc(N2CCOCC2)ccc1Nc1nc2nonc2nc1Nc1ccc(N2CCOCC2)cc1` [Compound 23] the IC50 was greater than 10 µM.

The molecules below were run on HCT116 p53−/− (assay: MTT cytotoxicity assay (Example 1)). Conditions: Homo sapiens, HCT-116, 72 h, MTT, 72 h.
Assay type: cell-based
Source text: as §1, §2, §3
Work on `O=C(O)c1cc(-c2ccc(C=NNc3nc4nonc4nc3Nc3ccc(F)cc3)o2)ccc1Cl` [Compound 13] yielded an IC50 of 7 µM. `O=C(O)c1cc(-c2ccc(/C=N/Nc3nc4nonc4nc3Nc3ccccc3F)o2)ccc1Cl` [Compound 14] gave an IC50 of 7 µM. Molecule `Cc1cc(-c2ccc(/C=N/Nc3nc4nonc4nc3Nc3ccccc3F)o2)c(C)c([N+](=O)[O-])c1` [Compound 16] has an IC50 of 0.8 ± 0.1 µM. For `O=C(O)c1cc(-c2ccc(C=NNc3nc4nonc4nc3Nc3cccc(Br)c3)o2)ccc1O` [Compound 18], the IC50 was greater than 10 µM. Work on `Cc1cccc(Nc2nc3nonc3nc2NN=Cc2ccc(-c3cccc(C(=O)O)c3)o2)c1` [Compound 20] yielded an IC50 greater than 10 µM. Molecule `c1coc(CNc2nc3nonc3nc2NCc2ccco2)c1` [Compound 21] has an IC50 greater than 10 µM. With `O=C(O)c1ccccc1Nc1nc2nonc2nc1Nc1ccccc1C(=O)O` [Compound 22] the IC50 was greater than 10 µM. `c1cc(N2CCOCC2)ccc1Nc1nc2nonc2nc1Nc1ccc(N2CCOCC2)cc1` [Compound 23] was tested, and the IC50 was greater than 10 µM.

The molecules below were run on NIH3T3 (assay: MTT cytotoxicity assay (Example 1)). Conditions: Mus musculus, NIH3T3, 72 h.
Assay type: cell-based, mouse
Source text: as §1, §2, §3
Molecule `O=C(O)c1cc(-c2ccc(C=NNc3nc4nonc4nc3Nc3ccc(F)cc3)o2)ccc1Cl` [Compound 13] has an IC50 of 10 µM. Molecule `O=C(O)c1cc(-c2ccc(/C=N/Nc3nc4nonc4nc3Nc3ccccc3F)o2)ccc1Cl` [Compound 14] has an IC50 greater than 10 µM. For `Cc1cc(-c2ccc(/C=N/Nc3nc4nonc4nc3Nc3ccccc3F)o2)c(C)c([N+](=O)[O-])c1` [Compound 16], the IC50 was 2 µM. `O=C(O)c1cc(-c2ccc(C=NNc3nc4nonc4nc3Nc3cccc(Br)c3)o2)ccc1O` [Compound 18] was tested, and the IC50 was 11 µM. In the case of `Cc1cccc(Nc2nc3nonc3nc2NN=Cc2ccc(-c3cccc(C(=O)O)c3)o2)c1` [Compound 20], the IC50 is reported as 10 µM. `c1coc(CNc2nc3nonc3nc2NCc2ccco2)c1` [Compound 21] showed an IC50 greater than 10 µM. Work on `O=C(O)c1ccccc1Nc1nc2nonc2nc1Nc1ccccc1C(=O)O` [Compound 22] yielded an IC50 greater than 10 µM. For `c1cc(N2CCOCC2)ccc1Nc1nc2nonc2nc1Nc1ccc(N2CCOCC2)cc1` [Compound 23], the IC50 was greater than 10 µM.
